Patent US10611732B2, “HIV replication inhibiting pyrimidines” (Janssen Pharmaceutica NV, priority 2001, dated 2020)
Read-outs that look alike come from different tables or passages of the source.

Columns and labels:
[1] = tested on: HIV; experiment: microbe, parasite or virus in culture; settings: for pIC50 (−log IC50): HIV-infected MT-4 cells; for pIC50 (−log IC50) / IC50: dose achieving 50% protection, MTT, OD 540 nm; for pSI (pCC50-pIC50): selectivity index, ratio of CC50 to IC50, as log difference; for IC50: Human immunodeficiency virus 1, MT4, read-out: pIC50 (−log IC50), HIV-infected MT-4 cells (converted)
Protocol: (§1) A rapid, sensitive and automated assay procedure was used for the in vitro evaluation of anti-HIV agents. An […] T4-cell line, MT-4, which was previously shown (Koyanagi et al., Int. J Cancer, 36, 445-451, 1985) to be highly susceptible to and permissive for HIV infection, served as the target cell line. Inhibition of the HIV-induced cytopathic effect was used as the end point. The viability of both HIV- and mock-infected cells was assessed spectrophotometrically via the in situ reduction of 3-(4,5-dimethylthiazol-2-yl)-2,5-diphenyltetrazolium bromide (MTT). The 50% cytotoxic concentration (CC50 in M) was defined as the concentration of compound that reduced the absorbance of the mock-infected control sample by 50%. The percent protection achieved by the compound in HIV-infected cells was calculated by the following formula:
(§2) [formula] whereby (ODT)HIV is the optical density measured with a given concentration of the test compound in HIV-infected cells; (ODC)HIV is the optical density measured for the control untreated HIV-infected cells; (ODC)MOCK is the optical density measured for the control untreated mock-infected cells; all optical density values were determined at 540 nm. The dose achieving 50% protection according to the above formula was defined as the 50% inhibitory concentration (IC50 in M). The ratio of CC50 to IC50 was defined as the selectivity index (SI).
(§3) Table 6 lists the pIC50 (−log IC50), pCC50 (−log CC50) and pSI (pCC50-pIC50) values for the compounds of formula (I).

[2] = tested on: mock-infected MT-4 cells; experiment: cytotoxicity in mock-infected MT-4 cells (MTT)
Protocol: as §1, §2, §3

[3] = mock-infected MT-4 cells, concentration reducing absorbance of control by 50%, MTT

Cc1cc(C=C(C#N)CC#N)cc(C)c1Nc1ccnc(Nc2ccc(C#N)cc2)n1 (mixture of isomers) [Compound 147]
pIC50 (−log IC50) [1]: 9.4 | pSI (pCC50-pIC50) [1]: −3.7 | pCC50 (−log CC50) [2]: 5.7 M

Cc1cc(/C=C/C#N)cc(C)c1Nc1ccnc(Nc2ccc(C#N)cc2)n1 [Compound 1, 4-[[4-[[4-(2-cyanoethenyl)-2,6-dimethylphenyl]amino]-2-pyrimidinyl]amino]benzonitrile (E)]
IC50 [1]: 0.398 nM | pSI (pCC50-pIC50) [1]: −4.4 | pCC50 (−log CC50) [2, 3]: 5.0 M

Cc1cc(-c2ccco2)cc(C)c1Nc1ccnc(Nc2ccc(C#N)cc2)n1 [Compound 3]
IC50 [1]: 3.98 nM | pSI (pCC50-pIC50) [1]: −2.9

CO/N=C(\c1cc(C)c(Nc2ccnc(Nc3ccc(C#N)cc3)n2)c(C)c1)C(C)C [Compound 9]
IC50 [1]: 1.58 nM | pSI (pCC50-pIC50) [1]: −4

Cc1cc(/C=C\C#N)cc(C)c1Nc1ccnc(Nc2ccc(C#N)cc2)n1 [Compound 10]
pSI (pCC50-pIC50) [1]: −2.9 | pCC50 (−log CC50) [2]: 6.3 M

C/C(C#N)=C/c1cc(C)c(Nc2ccnc(Nc3ccc(C#N)cc3)n2)c(C)c1 [Compound 11]
pIC50 (−log IC50) [1]: 9.2 | pSI (pCC50-pIC50) [1]: −3.5 | pCC50 (−log CC50) [2]: 5.7 M

Cc1cc(C(O)CC#N)cc(C)c1Nc1ccnc(Nc2ccc(C#N)cc2)n1 (stereo not shown) [Compound 18]
IC50 [1]: 1.58 nM | pSI (pCC50-pIC50) [1]: −4.0

Cc1cc(-c2ccsc2)cc(C)c1Nc1ccnc(Nc2ccc(C#N)cc2)n1 [Compound 21]
IC50 [1]: 3.98 nM | pSI (pCC50-pIC50) [1]: −3.5

Cc1cc(CCC#N)cc(C)c1Nc1ccnc(Nc2ccc(C#N)cc2)n1 [Compound 24]
IC50 [1]: 0.794 nM | pSI (pCC50-pIC50) [1]: −3.4

Cc1cc(C=CC#N)cc(C)c1Oc1ccnc(Nc2ccc(C#N)cc2)n1 [Compound 25]
pIC50 (−log IC50) [1]: 9 | pSI (pCC50-pIC50) [1]: −5

CC(=O)c1cccc(-c2cc(C)c(Nc3ccnc(Nc4ccc(C#N)cc4)n3)c(C)c2)c1 [Compound 34]
IC50 [1]: 10 nM | pSI (pCC50-pIC50) [1]: −3.2

CC(=NO)c1cc(C)c(Nc2ccnc(Nc3ccc(C#N)cc3)n2)c(C)c1 [Compound 45]
pIC50 (−log IC50) [1]: 8.7 | pSI (pCC50-pIC50) [1]: −3.8 | pCC50 (−log CC50) [2]: 5.0 M

Cc1cc(/C=C(\C#N)c2cccs2)cc(C)c1Nc1ccnc(Nc2ccc(C#N)cc2)n1 [Compound 49]
IC50 [1]: 10 nM | pSI (pCC50-pIC50) [1]: −3.2

Cc1cc(Cn2ccnc2)cc(C)c1Nc1ccnc(Nc2ccc(C#N)cc2)n1 [Compound 70]
IC50 [1]: 7.94 nM | pSI (pCC50-pIC50) [1]: −3.3

Cc1cc(CN(C)CCC#N)cc(C)c1Nc1ccnc(Nc2ccc(C#N)cc2)n1 [Compound 75]
pIC50 (−log IC50) [1]: 9.0 | pSI (pCC50-pIC50) [1]: −4.0 | pCC50 (−log CC50) [2]: 5.0 M

Cc1cc(CN2CCSC2)cc(C)c1Nc1ccnc(Nc2ccc(C#N)cc2)n1 [Compound 78]
IC50 [1]: 3.98 nM | pSI (pCC50-pIC50) [1]: −3.5

CCN(Cc1ccncc1)Cc1cc(C)c(Nc2ccnc(Nc3ccc(C#N)cc3)n2)c(C)c1 [Compound 79]
IC50 [1]: 10 nM | pSI (pCC50-pIC50) [1]: −2.7

C/C(=C\C#N)c1cc(C)c(Nc2ccnc(Nc3ccc(C#N)cc3)n2)c(C)c1 [Compound 84]
pIC50 (−log IC50) [1]: 9.0 | pSI (pCC50-pIC50) [1]: −4.5 | pCC50 (−log CC50) [2]: 4.5 M

Cc1cc(-n2cccc2)cc(C)c1Oc1ccnc(Nc2ccc(C#N)cc2)n1 [Compound 118]
IC50 [1]: 3.98 nM | pSI (pCC50-pIC50) [1]: <−4.1

Cc1cc(/C(Cl)=C\C#N)cc(C)c1Nc1ccnc(Nc2ccc(C#N)cc2)n1 [Compound 124]
IC50 [1]: 3.16 nM | pSI (pCC50-pIC50) [1]: −3.8

Cc1cc(/C=C/C#N)cc(Cl)c1Nc1ccnc(Nc2ccc(C#N)cc2)n1 [Compound 133]
pIC50 (−log IC50) [1]: 9.2 | pSI (pCC50-pIC50) [1]: −5.2 | pCC50 (−log CC50) [2]: 4 M

Cc1cc(CC(C#N)C#N)cc(C)c1Nc1ccnc(Nc2ccc(C#N)cc2)n1 [Compound 144]
pIC50 (−log IC50) [1]: 8.6 | pSI (pCC50-pIC50) [1]: −2.2 | pCC50 (−log CC50) [2]: 6.4 M

Cc1cc(/C=C/c2cccnc2)cc(C)c1Nc1ccnc(Nc2ccc(C#N)cc2)n1 [Compound 145]
IC50 [1]: 2 nM | pSI (pCC50-pIC50) [1]: −3.4

Cc1cc(/C=C/c2cccnc2)cc(C)c1Nc1ccnc(Nc2ccc(C#N)cc2)n1 [Compound 146]
pIC50 (−log IC50) [1]: 8.4 | pSI (pCC50-pIC50) [1]: −3 | pCC50 (−log CC50) [2, 3]: 5.4 M

CC/C(=C\C#N)c1cc(C)c(Nc2ccnc(Nc3ccc(C#N)cc3)n2)c(C)c1 [Compound 148]
pIC50 (−log IC50) [1]: 8.8 | pSI (pCC50-pIC50) [1]: −3.9 | pCC50 (−log CC50) [2]: 4.9 M

Cc1cc(/C(=C/C#N)C(C)C)cc(C)c1Nc1ccnc(Nc2ccc(C#N)cc2)n1 [Compound 149]
pIC50 (−log IC50) [1]: 9.1 | pSI (pCC50-pIC50) [1]: −3.8 | pCC50 (−log CC50) [2]: 5.3 M

Cc1cc(/C(=C\C#N)C(C)C)cc(C)c1Nc1ccnc(Nc2ccc(C#N)cc2)n1 [Compound 150]
pIC50 (−log IC50) [1]: 8.8 | pSI (pCC50-pIC50) [1]: −4.0 | pCC50 (−log CC50) [2]: 4.8 M

C/C(C#N)=C/c1cc(C)c(Nc2ccnc(Nc3ccc(C#N)cc3)n2)c(C)c1 [Compound 151]
pIC50 (−log IC50) [1]: 9.1 | pSI (pCC50-pIC50) [1]: −3.6 | pCC50 (−log CC50) [2]: 5.5 M

C/C(C#N)=C/c1cc(C)c(Nc2ccnc(Nc3ccc(C#N)cc3)n2)c(C)c1 [Compound 152]
pIC50 (−log IC50) [1]: 9.1 | pSI (pCC50-pIC50) [1]: −4.3 | pCC50 (−log CC50) [2]: 4.8 M

Cc1cc(CC(C)C#N)cc(C)c1Nc1ccnc(Nc2ccc(C#N)cc2)n1 (stereo not shown) [Compound 153]
pIC50 (−log IC50) [1]: 9.2 | pSI (pCC50-pIC50) [1]: −2.9 | pCC50 (−log CC50) [2]: 6.3 M

Cc1cc(/C=C/C(=O)N2CCN(C)CC2)cc(C)c1Nc1ccnc(Nc2ccc(C#N)cc2)n1 [Compound 155]
IC50 [1]: 1.58 nM | pSI (pCC50-pIC50) [1]: −2.5

Cc1cc(/C=C/C(=O)N2CCOCC2)cc(C)c1Nc1ccnc(Nc2ccc(C#N)cc2)n1 [Compound 156]
IC50 [1]: 20 nM | pSI (pCC50-pIC50) [1]: −2.6

CCN(C)C(=O)/C=C/c1cc(C)c(Nc2ccnc(Nc3ccc(C#N)cc3)n2)c(C)c1 [Compound 158]
pIC50 (−log IC50) [1]: 8 | pSI (pCC50-pIC50) [1]: −2.5 | pCC50 (−log CC50) [2]: 5.5 M

Cc1cc(CN(C)C=NC#N)cc(C)c1Oc1ccnc(Nc2ccc(C#N)cc2)n1 [Compound 174]
pIC50 (−log IC50) [1]: 8.8 | pSI (pCC50-pIC50) [1]: −3.5 | pCC50 (−log CC50) [2]: 5.3 M

Cc1cc(/C=C\Br)cc(C)c1Oc1ccnc(Nc2ccc(C#N)cc2)n1 [Compound 177]
pIC50 (−log IC50) [1]: 8.3 | pSI (pCC50-pIC50) [1]: <−4.3 | pCC50 (−log CC50) [2]: <4.0 M

C/C(C#N)=C/c1cc(C)c(Oc2ccnc(Nc3ccc(C#N)cc3)n2)c(C)c1 [Compound 178]
pIC50 (−log IC50) [1]: 8.8 | pSI (pCC50-pIC50) [1]: −3.1 | pCC50 (−log CC50) [2]: 5.7 M

C/C(C#N)=C\c1cc(C)c(Oc2ccnc(Nc3ccc(C#N)cc3)n2)c(C)c1 [Compound 179]
pIC50 (−log IC50) [1]: 8.9 | pSI (pCC50-pIC50) [1]: <−4.9 | pCC50 (−log CC50) [2]: <4.0 M

Cc1cc(/C=C/C(=O)N2CC=CC2)cc(C)c1Oc1ccnc(Nc2ccc(C#N)cc2)n1 [Compound 209]
IC50 [1]: 2.51 nM | pSI (pCC50-pIC50) [1]: −3.7

Cc1cc(/C=C/C(=O)N(C)C2CCN(C)CC2)cc(C)c1Oc1ccnc(Nc2ccc(C#N)cc2)n1 [Compound 210]
IC50 [1]: 5.01 nM | pSI (pCC50-pIC50) [1]: −3.5

Cc1cc(/C=C/C(=O)N(C)CC#N)cc(C)c1Oc1ccnc(Nc2ccc(C#N)cc2)n1 [Compound 212]
pIC50 (−log IC50) [1]: 9.1 | pSI (pCC50-pIC50) [1]: −4.1 | pCC50 (−log CC50) [2]: 5 M

CC(=CC#N)c1cc(C)c(Oc2ccnc(Nc3ccc(C#N)cc3)n2)c(C)c1 [Compound 213]
pIC50 (−log IC50) [1]: 9 | pSI (pCC50-pIC50) [1]: −4.2 | pCC50 (−log CC50) [2]: 4.8 M

Cc1cc(/C=C/C(=O)N(C)CCC#N)cc(C)c1Oc1ccnc(Nc2ccc(C#N)cc2)n1 [Compound 214]
pIC50 (−log IC50) [1]: 8.6 | pSI (pCC50-pIC50) [1]: −3.5 | pCC50 (−log CC50) [2]: 5.1 M

CCN(C)C(=O)/C=C/c1cc(C)c(Oc2ccnc(Nc3ccc(C#N)cc3)n2)c(C)c1 [Compound 215]
pIC50 (−log IC50) [1]: 9.1 | pSI (pCC50-pIC50) [1]: −3.6 | pCC50 (−log CC50) [2]: 5.5 M

Cc1cc(/C=C/C(=O)N2CCOCC2)cc(C)c1Oc1ccnc(Nc2ccc(C#N)cc2)n1 [Compound 216]
IC50 [1]: 6.31 nM | pSI (pCC50-pIC50) [1]: −3.6

Cc1cc(/C=C/C(=O)N(C)C)cc(C)c1Oc1ccnc(Nc2ccc(C#N)cc2)n1 [Compound 219]
pIC50 (−log IC50) [1]: 9.1 | pSI (pCC50-pIC50) [1]: −4.1 | pCC50 (−log CC50) [2]: 5 M

Cc1cc(CCC#N)ccc1Nc1ccnc(Nc2ccc(C#N)cc2)n1 [Compound 227]
pIC50 (−log IC50) [1]: 9.5 | pSI (pCC50-pIC50) [1]: <−5.5 | pCC50 (−log CC50) [2]: <4.0 M

CC(C#N)=Cc1ccc(Nc2ccnc(Nc3ccc(C#N)cc3)n2)c(C)c1 [Compound 229]
pIC50 (−log IC50) [1]: 8.8 | pSI (pCC50-pIC50) [1]: <−4.8 | pCC50 (−log CC50) [2]: <4.0 M

Cc1cc(/C=C/C#N)ccc1Oc1ccnc(Nc2ccc(C#N)cc2)n1 [Compound 230]
pIC50 (−log IC50) [1]: 9.2 | pSI (pCC50-pIC50) [1]: <−5.2 | pCC50 (−log CC50) [2]: <4.0 M
